According to PMC4077385, “Synthesis of the first examples of iminosugar clusters based on cyclopeptoid cores” (Beilstein Journal of Organic Chemistry, 2014):
Where two headings read alike, the source gives them in different places.

Target: T1, jack bean α-mannosidase (Canavalia ensiformis, UniProt C0HJB3)
T1 construct: purchased Sigma–Aldrich
T1 sequence (C0HJB3 1-981): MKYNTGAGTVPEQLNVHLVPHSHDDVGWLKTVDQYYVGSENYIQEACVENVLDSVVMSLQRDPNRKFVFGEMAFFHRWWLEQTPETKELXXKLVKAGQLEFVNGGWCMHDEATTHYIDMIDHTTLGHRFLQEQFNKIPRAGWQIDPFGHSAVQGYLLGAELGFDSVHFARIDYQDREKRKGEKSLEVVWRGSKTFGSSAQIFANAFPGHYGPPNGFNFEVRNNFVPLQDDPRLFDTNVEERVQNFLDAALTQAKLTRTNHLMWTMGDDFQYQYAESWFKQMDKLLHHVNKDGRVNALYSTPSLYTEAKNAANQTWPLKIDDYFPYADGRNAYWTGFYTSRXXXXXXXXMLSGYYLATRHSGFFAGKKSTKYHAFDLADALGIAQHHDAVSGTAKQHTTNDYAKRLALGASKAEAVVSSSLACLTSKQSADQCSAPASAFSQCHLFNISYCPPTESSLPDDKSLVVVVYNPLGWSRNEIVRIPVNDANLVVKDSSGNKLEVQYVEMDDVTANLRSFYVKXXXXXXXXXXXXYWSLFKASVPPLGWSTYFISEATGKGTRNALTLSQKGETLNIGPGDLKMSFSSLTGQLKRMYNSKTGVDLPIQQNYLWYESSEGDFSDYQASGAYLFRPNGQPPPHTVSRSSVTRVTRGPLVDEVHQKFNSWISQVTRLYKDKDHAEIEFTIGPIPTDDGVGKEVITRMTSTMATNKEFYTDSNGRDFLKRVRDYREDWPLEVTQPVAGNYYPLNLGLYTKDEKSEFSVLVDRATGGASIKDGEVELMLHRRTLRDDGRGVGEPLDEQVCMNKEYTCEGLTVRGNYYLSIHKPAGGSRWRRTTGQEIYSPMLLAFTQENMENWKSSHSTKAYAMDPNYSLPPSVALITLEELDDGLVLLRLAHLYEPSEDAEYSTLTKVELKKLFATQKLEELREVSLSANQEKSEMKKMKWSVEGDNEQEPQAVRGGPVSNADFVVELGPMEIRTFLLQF
Assay: Jack bean α-mannosidase inhibition assay (Ki, Dixon method)
Type: biochemical
Settings: for rp (relative inhibition potency): Ki (monovalent reference)/Ki (glycocluster), reference 11a for C6, 11b for C9 linker; for rp/n: relative inhibition potency/number of iminosugar units (valency-corrected)
Experimental: General procedure for inhibition assay
The p-nitrophenyl-α-D-mannopyranoside and α-mannosidase (EC 3.2.1.24, from jack bean, […]
The release of p-nitrophenol was measured continuously at 385 nm to determine initial velocities.[1] All kinetics were performed at 35 °C and started by substrate addition in a 1 mL assay medium (acetate buffer, 0.2 M, pH = 5) containing α-mannosidase (5 mU), substrate (varying concentration from Km/4 to Km value) in presence or absence of various concentrations of inhibitor. Ki […]
are only partially soluble in water, they were dissolved in DMSO for concentrated mother solutions and DMSO/buffer for diluted solutions with a final DMSO concentration under […]
2,5% in all vials. […]
1 Behr, J.-B.; Chevrier, C.; Defoin, A.; Tarnus, C.; Streith, J. Tetrahedron 2003, 59, 543–553.
2 Segel, I. H. Enzyme Kinetics; John Wiley & Sons, New York, 1975, p. 109–144.

[1] = α-mannosidase EC 3.2.1.24 (5 mU), substrate p-nitrophenyl-α-D-mannopyranoside Km/4 to Km, acetate buffer 0.2 M pH 5, 35 °C, p-nitrophenol release at 385 nm, DMSO under 2,5%, Dixon graphical method, determined in duplicate, read-out: Ki

Row | Structure (SMILES) | Ki [1] [µM] | rp (relative inhibition potency) | rp/n | Ki [µM] | other results
1 | O=C1CN(Cc2cn(CCCCCCN3C[C@H](O)[C@@H](O)[C@H](O)[C@H]3CO)nn2)C(=O)CN(Cc2cn(CCCCCCN3C[C@H](O)[C@@H](O)[C@H](O)[C@H]3CO)nn2)C(=O)CN(Cc2cn(CCCCCCN3C[C@H](O)[C@@H](O)[C@H](O)[C@H]3CO)nn2)C(=O)CN(Cc2cn(CCCCCCN3C[C@H](O)[C@@H](O)[C@H](O)[C@H]3CO)nn2)C(=O)CN(Cc2cn(CCCCCCN3C[C@H](O)[C@@H](O)[C@H](O)[C@H]3CO)nn2)C(=O)CN1Cc1cn(CCCCCCN2C[C@H](O)[C@@H](O)[C@H](O)[C@H]2CO)nn1 [Compound 10a] | 65 ± 24 | – | – | – | –
2 | O=C1CN(Cc2cn(CCCCCCCCCN3C[C@H](O)[C@@H](O)[C@H](O)[C@H]3CO)nn2)C(=O)CN(Cc2cn(CCCCCCCCCN3C[C@H](O)[C@@H](O)[C@H](O)[C@H]3CO)nn2)C(=O)CN(Cc2cn(CCCCCCCCCN3C[C@H](O)[C@@H](O)[C@H](O)[C@H]3CO)nn2)C(=O)CN(Cc2cn(CCCCCCCCCN3C[C@H](O)[C@@H](O)[C@H](O)[C@H]3CO)nn2)C(=O)CN(Cc2cn(CCCCCCCCCN3C[C@H](O)[C@@H](O)[C@H](O)[C@H]3CO)nn2)C(=O)CN1Cc1cn(CCCCCCCCCN2C[C@H](O)[C@@H](O)[C@H](O)[C@H]2CO)nn1 [Compound 10b] | 11 ± 1 | 17 | 2.8 | – | –
3 | O=C1CN(Cc2cn(CCCCCCN3C[C@H](O)[C@@H](O)[C@H](O)[C@H]3CO)nn2)C(=O)CN(Cc2cn(CCCCCCN3C[C@H](O)[C@@H](O)[C@H](O)[C@H]3CO)nn2)C(=O)CN(Cc2cn(CCCCCCN3C[C@H](O)[C@@H](O)[C@H](O)[C@H]3CO)nn2)C(=O)CN(Cc2cn(CCCCCCN3C[C@H](O)[C@@H](O)[C@H](O)[C@H]3CO)nn2)C(=O)CN(Cc2cn(CCCCCCN3C[C@H](O)[C@@H](O)[C@H](O)[C@H]3CO)nn2)C(=O)CN(Cc2cn(CCCCCCN3C[C@H](O)[C@@H](O)[C@H](O)[C@H]3CO)nn2)C(=O)CN(Cc2cn(CCCCCCN3C[C@H](O)[C@@H](O)[C@H](O)[C@H]3CO)nn2)C(=O)CN1Cc1cn(CCCCCCN2C[C@H](O)[C@@H](O)[C@H](O)[C@H]2CO)nn1 [Compound 10c] | – | – | – | 21 ± 2 | –
4 | O=C1CN(Cc2cn(CCCCCCCCCN3C[C@H](O)[C@@H](O)[C@H](O)[C@H]3CO)nn2)C(=O)CN(Cc2cn(CCCCCCCCCN3C[C@H](O)[C@@H](O)[C@H](O)[C@H]3CO)nn2)C(=O)CN(Cc2cn(CCCCCCCCCN3C[C@H](O)[C@@H](O)[C@H](O)[C@H]3CO)nn2)C(=O)CN(Cc2cn(CCCCCCCCCN3C[C@H](O)[C@@H](O)[C@H](O)[C@H]3CO)nn2)C(=O)CN(Cc2cn(CCCCCCCCCN3C[C@H](O)[C@@H](O)[C@H](O)[C@H]3CO)nn2)C(=O)CN(Cc2cn(CCCCCCCCCN3C[C@H](O)[C@@H](O)[C@H](O)[C@H]3CO)nn2)C(=O)CN(Cc2cn(CCCCCCCCCN3C[C@H](O)[C@@H](O)[C@H](O)[C@H]3CO)nn2)C(=O)CN1Cc1cn(CCCCCCCCCN2C[C@H](O)[C@@H](O)[C@H](O)[C@H]2CO)nn1 [Compound 10d] | – | – | – | 8 ± 3 | –
5 | O=C1CN(Cc2cn(CCCCCCN3C[C@H](O)[C@@H](O)[C@H](O)[C@H]3CO)nn2)C(=O)CN(Cc2cn(CCCCCCN3C[C@H](O)[C@@H](O)[C@H](O)[C@H]3CO)nn2)C(=O)CN(Cc2cn(CCCCCCN3C[C@H](O)[C@@H](O)[C@H](O)[C@H]3CO)nn2)C(=O)CN(Cc2cn(CCCCCCN3C[C@H](O)[C@@H](O)[C@H](O)[C@H]3CO)nn2)C(=O)CN(Cc2cn(CCCCCCN3C[C@H](O)[C@@H](O)[C@H](O)[C@H]3CO)nn2)C(=O)CN(Cc2cn(CCCCCCN3C[C@H](O)[C@@H](O)[C@H](O)[C@H]3CO)nn2)C(=O)CN(Cc2cn(CCCCCCN3C[C@H](O)[C@@H](O)[C@H](O)[C@H]3CO)nn2)C(=O)CN(Cc2cn(CCCCCCN3C[C@H](O)[C@@H](O)[C@H](O)[C@H]3CO)nn2)C(=O)CN(Cc2cn(CCCCCCN3C[C@H](O)[C@@H](O)[C@H](O)[C@H]3CO)nn2)C(=O)CN1Cc1cn(CCCCCCN2C[C@H](O)[C@@H](O)[C@H](O)[C@H]2CO)nn1 [Compound 10e] | – | 21 | 2.1 | – | Ki (as E1 but single determination of Ki without duplicate): 15 ± 10 µM
6 | O=C1CN(Cc2cn(CCCCCCCCCN3C[C@H](O)[C@@H](O)[C@H](O)[C@H]3CO)nn2)C(=O)CN(Cc2cn(CCCCCCCCCN3C[C@H](O)[C@@H](O)[C@H](O)[C@H]3CO)nn2)C(=O)CN(Cc2cn(CCCCCCCCCN3C[C@H](O)[C@@H](O)[C@H](O)[C@H]3CO)nn2)C(=O)CN(Cc2cn(CCCCCCCCCN3C[C@H](O)[C@@H](O)[C@H](O)[C@H]3CO)nn2)C(=O)CN(Cc2cn(CCCCCCCCCN3C[C@H](O)[C@@H](O)[C@H](O)[C@H]3CO)nn2)C(=O)CN(Cc2cn(CCCCCCCCCN3C[C@H](O)[C@@H](O)[C@H](O)[C@H]3CO)nn2)C(=O)CN(Cc2cn(CCCCCCCCCN3C[C@H](O)[C@@H](O)[C@H](O)[C@H]3CO)nn2)C(=O)CN(Cc2cn(CCCCCCCCCN3C[C@H](O)[C@@H](O)[C@H](O)[C@H]3CO)nn2)C(=O)CN(Cc2cn(CCCCCCCCCN3C[C@H](O)[C@@H](O)[C@H](O)[C@H]3CO)nn2)C(=O)CN1Cc1cn(CCCCCCCCCN2C[C@H](O)[C@@H](O)[C@H](O)[C@H]2CO)nn1 [Compound 10f] | – | – | – | 5 ± 1 | –
